Results published in US20030022812A1, “Treating pain by targeting hyperpolarization-activated, cyclic nucleotide-gated channels” (priority 2001, published 2003).

Experiments:
human HCN1 = biological target: T1, human HCN1 (Homo sapiens, UniProt O60741); assay: Two-electrode voltage clamp of Xenopus oocytes injected with human HCN1 cRNA; assay type: cell-based; details: Cs+ 3 mM; for block of HCN1 currents: n=3
T1 construct: expressed in transfected cells; host or cells: Xenopus laevis oocytes injected with cRNA transcribed from pGEMHE-human HCN1
T1 sequence (O60741 1-890): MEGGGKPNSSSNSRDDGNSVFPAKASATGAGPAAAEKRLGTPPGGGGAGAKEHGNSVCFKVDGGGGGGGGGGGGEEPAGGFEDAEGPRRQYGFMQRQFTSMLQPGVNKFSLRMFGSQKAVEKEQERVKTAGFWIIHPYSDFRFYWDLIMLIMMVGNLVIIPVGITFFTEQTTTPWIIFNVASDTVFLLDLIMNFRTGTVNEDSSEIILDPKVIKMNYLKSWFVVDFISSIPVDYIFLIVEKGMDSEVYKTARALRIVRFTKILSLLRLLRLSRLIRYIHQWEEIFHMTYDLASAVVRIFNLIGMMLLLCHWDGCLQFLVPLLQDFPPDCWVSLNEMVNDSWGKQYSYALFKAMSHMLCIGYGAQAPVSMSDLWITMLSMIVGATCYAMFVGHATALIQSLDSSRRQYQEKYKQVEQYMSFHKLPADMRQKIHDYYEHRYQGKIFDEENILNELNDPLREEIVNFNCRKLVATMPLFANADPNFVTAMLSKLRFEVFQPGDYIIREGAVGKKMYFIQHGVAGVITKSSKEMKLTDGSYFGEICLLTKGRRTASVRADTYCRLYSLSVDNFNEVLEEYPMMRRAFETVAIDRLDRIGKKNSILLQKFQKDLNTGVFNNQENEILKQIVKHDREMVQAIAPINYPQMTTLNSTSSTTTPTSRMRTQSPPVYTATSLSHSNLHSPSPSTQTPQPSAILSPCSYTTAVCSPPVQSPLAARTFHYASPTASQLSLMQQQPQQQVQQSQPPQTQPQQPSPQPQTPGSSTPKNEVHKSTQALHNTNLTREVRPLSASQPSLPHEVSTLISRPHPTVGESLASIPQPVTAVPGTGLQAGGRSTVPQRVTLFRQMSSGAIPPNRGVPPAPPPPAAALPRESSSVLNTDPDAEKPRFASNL
Experimental: Xenopus laevis oocytes were prepared and injected using standard methods previously described and known in the art [Fraser et al. (1993). Electrophysiology: a practical approach. D. I. Wallis, IRL Press at Oxford University Press, Oxford: 65-86]. Ovarian lobes from adult female Xenopus laevis (Nasco, Fort Atkinson, Wis.) were teased apart, rinsed several times in nominally Ca-free saline containing: 82.5 mM NaCl, 2.5 mM KCl, 1 mM MgCl2, 5 mM HEPES, adjusted to pH 7.0 with NaOH (OR-2), and gently shaken in OR-2 containing 0.2% collagenase Type 1 (ICN Biomedicals, Aurora, Ohio) for 2-5 hours. When approximately 50% of the follicular layers were removed, Stage V and VI oocytes were selected and rinsed in media consisting of 75% OR-2 and 25% ND-96. The ND-96 contained: 100 mM NaCl, 2 mM KCl, 1 mM MgCl2, 1.8 mM CaCl2, 5 mM HEPES, 2.5 mM Na pyruvate, gentamicin (50 ug/ml), adjusted to pH 7.0 with NaOH. […] For in vitro transcription, PGEM HE (Liman et al., (1992) Neuron 9: 861-71) containing human HCN1 was linearized with NheI and transcribed with T7 RNA polymerase (Promega) in the presence of the cap analog m7G(5′)ppp(5′)G. The synthesized cRNA was precipitated with ammonium acetate and isopropanol, and resuspended in 50 μl nuclease-free water. cRNA was quantified using formaldehyde gels (1% agarose, 1×MOPS, 3% formaldehyde) against 1,2 and 5 μl RNA markers (Gibco BRL, 0.24-9.5 Kb).
Oocytes were injected with 50 nl of human HCN1 RNA (1-10 ng). Control oocytes were injected with 50 nl of water. Oocytes were incubated for 2 days in ND-96 before analysis for expression of human HCN1. Incubations and collagenase digestion were carried out at room temperature. Injected oocytes were maintained in 48 well cell culture clusters (Costar; Cambridge, Mass.) at 18° C. Whole cell voltage-activated currents were measured 2 days after injection with a conventional two-electrode voltage clamp (GeneClamp500, Axon Instruments, Foster City, Calif.) using standard methods previously described and known in the art (Dascal et al., (1987) Pflugers Arch 409: 512-20). The microelectrodes, which had resistances of ˜1 MΩ, were filled with 3 M KCl. Cells were continuously perfused with ND96 at ˜10 ml/min at room temperature. Membrane voltage was clamped at −30 mV unless indicated.
Oocytes were challenged with a series of hyperpolarizing voltage steps from a holding potential of −30 mV. Voltage steps (800 msec duration) to −40 through −180 mV in 20 mV intervals were applied to oocytes at a sampling rate of […]. Hyperpolarizing voltage steps activated an inward current having a threshold of about −60 mV. […] Cs^+ blocked HCN1 currents by 94, 92 and 90% when Ih was evoked by stepping to −80, −100 and −120 mV, respectively. […]

normal rats = assay: 55° C. hot plate test of acute thermally-evoked pain; assay type: in vivo, rat; details: 10 mg/kg i.p.
Experimental: A cutoff of 20 seconds of thermal surface exposure was employed to prevent tissue damage. Drug administration: Normal rats were administered ZD7288, 10 mg/kg, or an equivalent volume of saline, i.p. at time 0. Behavioral assessments were performed at 45, 60 and 75 minutes after drug administration.

[1] = test system: rat complete Freund's adjuvant (CFA) model of hindpaw inflammation; assay: Thermal hyperalgesia (modified Hargreaves apparatus) in rat CFA model of hindpaw inflammation; assay type: in vivo; details: 10 mg/kg i.p.
Experimental: However, blockade of HCN channels with ZD7288 at 10 mg/kg, i.p., had no effect on thermal hyperalgesia (measured using a modified Hargreaves apparatus) in two different models of inflammatory pain: the rat carrageenan model of hindpaw inflammation, and the rat complete Freund's adjuvant (CFA) model of hindpaw inflammation. As shown supra, HCN blockade also had little effect on acute thermally evoked pain in the hot plate test.

| effect on endogenous oocyte inward currents (human HCN1) | block of HCN1 currents (human HCN1; Ih evoked by stepping to −80 mV) | block of HCN1 currents (human HCN1; Ih evoked by stepping to −100 mV) | block of HCN1 currents (human HCN1; Ih evoked by stepping to −120 mV) | SMILES | effect on acute thermally-evoked pain (normal rats) | hot plate latency, difference versus saline (normal rats; 45 or 60 min) | hot plate latency, difference versus saline (normal rats; 75 min) | effect on thermal hyperalgesia [1] |
| --- | --- | --- | --- | --- | --- | --- | --- | --- |
| no effect | 94% | 92% | 90% | [Cl-].[Cs+] [Cs^+, CsCl] | – | – | – | – |
| – | – | – | – | CCN(c1ccccc1)c1cc(=NC)n(C)c(C)n1.Cl [ZD7288] | minimal effect | No statistically significant difference | approximately 15% | no effect |
